# Measured values from ChEMBL document CHEMBL1201862, “PubChem BioAssay data set” (2004).
# The source made the active and inactive calls.
# What was measured:
# Prothrombin = Prothrombin (Bos taurus, UniProt P00735); test: thrombin protease inhibitors – biochemical, fluorescence polarization, uHTS hits, dose response (AID 602369); format: functional
# [1] = molecular target: 72 kDa type IV collagenase (Homo sapiens, UniProt P08253); test: Dose Response validation of uHTS RPN11 inhibitor hits using a MMP-2 Fluorescence assay.; format: functional
# [2] = molecular target: 26S proteasome non-ATPase regulatory subunit 14 (Homo sapiens, UniProt O00487); test: inhibition of proteasome subunit RPN11 – biochemical, fluorescence polarization, uHTS hits, confirmation (AID 602368); format: functional
# X-box-binding protein 1 = X-box-binding protein 1 (Homo sapiens, UniProt P17861); format: functional, Cricetulus griseus;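 further: confirmatory dose-response counter-screen serving a CHOP assay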
# Salmon testes DNA = test: acridine orange-DNA binding displacement – biochemical, fluorescence polarization, cherry-picked samples, set 2, artefact control for KSHV LANA DNA-binding inhibitor project, dose response (AID 504727); design: species or system Salmonidae
# [3] = molecular target: T1, Corticotropin-releasing factor receptor 2/Corticotropin-releasing factor-binding protein (Homo sapiens, UniProt P24387+Q13324); test: activators of CRF receptor 2 with binding protein – uHTS hits, confirmation (AID 602473); format: functional; conditions: read-out: EC50_Mean
# T1 sequence (Q13324 whole entry): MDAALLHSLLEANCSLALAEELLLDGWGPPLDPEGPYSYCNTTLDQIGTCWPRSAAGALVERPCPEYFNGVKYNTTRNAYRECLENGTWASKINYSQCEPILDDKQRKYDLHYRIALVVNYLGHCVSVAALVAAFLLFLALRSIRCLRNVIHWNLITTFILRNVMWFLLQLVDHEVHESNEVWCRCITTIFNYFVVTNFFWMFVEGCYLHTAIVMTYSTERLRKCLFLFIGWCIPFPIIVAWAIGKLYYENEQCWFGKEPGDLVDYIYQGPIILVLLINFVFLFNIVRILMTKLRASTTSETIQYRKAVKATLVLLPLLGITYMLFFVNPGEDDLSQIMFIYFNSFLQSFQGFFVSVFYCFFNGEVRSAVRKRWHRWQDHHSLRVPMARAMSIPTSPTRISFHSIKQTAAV
# T1 sequence (P24387 whole entry): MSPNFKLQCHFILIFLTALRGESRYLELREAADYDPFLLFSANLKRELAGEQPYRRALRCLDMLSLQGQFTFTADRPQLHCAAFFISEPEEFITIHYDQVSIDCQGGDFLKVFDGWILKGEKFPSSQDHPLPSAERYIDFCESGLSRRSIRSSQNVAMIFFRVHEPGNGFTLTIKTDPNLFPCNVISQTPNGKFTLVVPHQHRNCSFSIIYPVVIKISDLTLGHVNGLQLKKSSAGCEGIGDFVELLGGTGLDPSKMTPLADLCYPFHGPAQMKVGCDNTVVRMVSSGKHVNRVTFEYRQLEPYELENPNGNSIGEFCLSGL
# ORF 73 = molecular target: T2, ORF 73 (Human herpesvirus 8, UniProt O40947); test: KSHV LANA DNA-binding disruption – biochemical, fluorescence polarization, cherry-picked samples, dose response (AID 504725); design: species or system Human gammaherpesvirus 8;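 further: fluorescence polarization of a labeled DNA duplex reporting LANA DNA binding; potency is for inhibitors that block LANA binding to the DNA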
# T2 sequence (O40947 whole entry): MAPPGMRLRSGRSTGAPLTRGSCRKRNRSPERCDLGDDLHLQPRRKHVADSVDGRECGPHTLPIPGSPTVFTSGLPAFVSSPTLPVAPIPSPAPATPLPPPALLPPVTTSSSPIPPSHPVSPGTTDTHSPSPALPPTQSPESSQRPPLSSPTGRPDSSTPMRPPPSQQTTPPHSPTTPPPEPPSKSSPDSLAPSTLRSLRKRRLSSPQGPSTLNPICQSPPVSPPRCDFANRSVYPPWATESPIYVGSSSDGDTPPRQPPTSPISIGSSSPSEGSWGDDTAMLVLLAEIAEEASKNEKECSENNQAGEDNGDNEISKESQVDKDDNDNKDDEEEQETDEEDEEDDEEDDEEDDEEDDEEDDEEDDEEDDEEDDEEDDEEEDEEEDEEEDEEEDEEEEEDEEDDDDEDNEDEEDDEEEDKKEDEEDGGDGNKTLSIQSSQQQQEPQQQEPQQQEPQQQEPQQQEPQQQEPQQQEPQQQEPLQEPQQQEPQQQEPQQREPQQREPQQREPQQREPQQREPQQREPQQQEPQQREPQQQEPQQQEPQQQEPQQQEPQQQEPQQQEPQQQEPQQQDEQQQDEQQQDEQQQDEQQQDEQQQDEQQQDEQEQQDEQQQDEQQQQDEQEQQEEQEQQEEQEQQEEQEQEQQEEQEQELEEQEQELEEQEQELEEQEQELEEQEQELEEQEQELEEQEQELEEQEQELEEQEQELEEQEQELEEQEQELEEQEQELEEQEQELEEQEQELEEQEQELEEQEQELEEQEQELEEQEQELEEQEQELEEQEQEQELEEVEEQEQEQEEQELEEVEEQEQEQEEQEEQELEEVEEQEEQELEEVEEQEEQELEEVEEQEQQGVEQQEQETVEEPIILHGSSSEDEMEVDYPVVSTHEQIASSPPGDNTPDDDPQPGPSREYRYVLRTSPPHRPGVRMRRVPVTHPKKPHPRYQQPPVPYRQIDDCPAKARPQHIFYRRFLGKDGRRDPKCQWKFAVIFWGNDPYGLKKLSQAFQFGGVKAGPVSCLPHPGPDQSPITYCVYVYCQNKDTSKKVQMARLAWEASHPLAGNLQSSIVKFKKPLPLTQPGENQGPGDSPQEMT
# Keap1/Nrf2 = Keap1/Nrf2 (Homo sapiens, UniProt Q14145); test: disruptors of Keap1 binding to Nrf2 peptide – biochemical, fluorescence polarization, cherry-picked samples, dose response (AID 588683)
# [4] = viability of HCT116 lacking mutant beta-catenin – cell-based, human colon tumor, dose response (AID 1045); format: functional;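 further: HCT116 colon tumor cells with beta catenin knocked out; cells exposed to compound for 60 hours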
# Phosphomannomutase 2 = molecular target: T3, Phosphomannomutase 2 (Homo sapiens, UniProt O15305); test: Counter screen SAR assay for PMM2 inhibitors via a fluorescence intensity assay. [Related pubchem assays (depositor defined):AID1545, AID1574]
# T3 sequence (O15305 whole entry): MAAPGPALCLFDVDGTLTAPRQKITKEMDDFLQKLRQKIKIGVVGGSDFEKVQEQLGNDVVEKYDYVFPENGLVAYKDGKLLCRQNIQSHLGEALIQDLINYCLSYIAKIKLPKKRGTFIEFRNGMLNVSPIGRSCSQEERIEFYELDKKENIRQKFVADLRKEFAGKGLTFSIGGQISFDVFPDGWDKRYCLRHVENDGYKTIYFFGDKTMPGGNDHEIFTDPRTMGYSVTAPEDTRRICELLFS
# Cytochrome P450 2C19 = Cytochrome P450 2C19 (Homo sapiens, UniProt P33261); test: Cytochrome panel assay with activity outcomes. Panel member name: p450-cyp2c19 Compounds with AC50 equal or less than 10 uM are considered active; format: functional; conditions: read-out: AC50
# MDA-MB-435 = test: cells; format: functional, cell-based; conditions: Homo sapiens
# [5] = viability of PTEN-deleted HCT116 cells – cell-based, HCT116 PTEN knockout, dose response (AID 1047); format: functional;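 further: HCT116 colon tumor cells with PTEN knocked out; cells exposed to compound for 60 hours before readout; potency for loss of cell viability measured by luminescence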
# cells = format: functional, cell-based; conditions: PPC-1
# [6] = NIH3T3 cell viability loss – ATP luminescence, mouse fibroblasts, counter-screen, dose response (AID 2010); format: functional, cell-based;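 further: cells exposed to compound for about 90 hours before reading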
# Keap1/Nrf2, sequence (Q16236 whole entry): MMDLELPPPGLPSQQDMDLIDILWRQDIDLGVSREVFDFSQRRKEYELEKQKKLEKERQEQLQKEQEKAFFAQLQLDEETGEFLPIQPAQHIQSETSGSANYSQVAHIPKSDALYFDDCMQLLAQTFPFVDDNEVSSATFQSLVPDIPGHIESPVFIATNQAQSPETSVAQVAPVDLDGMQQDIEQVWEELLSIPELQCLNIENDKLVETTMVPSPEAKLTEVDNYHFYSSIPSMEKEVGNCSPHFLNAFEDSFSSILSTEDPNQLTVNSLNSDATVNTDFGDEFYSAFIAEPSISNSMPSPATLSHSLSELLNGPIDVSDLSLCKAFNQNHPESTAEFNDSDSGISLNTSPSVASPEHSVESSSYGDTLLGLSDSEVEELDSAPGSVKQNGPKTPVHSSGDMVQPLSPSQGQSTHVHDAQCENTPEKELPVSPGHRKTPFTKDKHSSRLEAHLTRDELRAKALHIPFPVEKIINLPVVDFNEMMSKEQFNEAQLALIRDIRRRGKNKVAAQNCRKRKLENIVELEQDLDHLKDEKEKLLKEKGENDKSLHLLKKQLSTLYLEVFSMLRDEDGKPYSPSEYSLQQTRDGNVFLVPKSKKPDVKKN
# Keap1/Nrf2, sequence (Q14145 whole entry): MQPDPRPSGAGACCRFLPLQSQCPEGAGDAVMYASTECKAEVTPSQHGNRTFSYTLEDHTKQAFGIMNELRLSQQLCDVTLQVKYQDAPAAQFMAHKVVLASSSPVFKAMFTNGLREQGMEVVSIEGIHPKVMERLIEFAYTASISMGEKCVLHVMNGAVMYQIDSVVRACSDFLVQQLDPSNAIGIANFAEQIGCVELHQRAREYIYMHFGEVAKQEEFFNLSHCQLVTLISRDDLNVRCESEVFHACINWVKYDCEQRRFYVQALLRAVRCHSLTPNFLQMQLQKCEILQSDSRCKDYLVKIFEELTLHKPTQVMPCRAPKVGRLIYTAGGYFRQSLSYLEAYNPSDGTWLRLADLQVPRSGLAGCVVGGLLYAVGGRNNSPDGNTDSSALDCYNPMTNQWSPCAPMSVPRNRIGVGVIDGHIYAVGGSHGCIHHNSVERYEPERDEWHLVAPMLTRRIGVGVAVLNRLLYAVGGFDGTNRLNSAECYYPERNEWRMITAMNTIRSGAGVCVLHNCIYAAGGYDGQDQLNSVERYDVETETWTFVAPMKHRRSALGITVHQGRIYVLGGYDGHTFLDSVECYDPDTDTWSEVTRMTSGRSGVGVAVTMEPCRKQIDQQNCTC
# Cytochrome P450 2C19, sequence (P33261 whole entry): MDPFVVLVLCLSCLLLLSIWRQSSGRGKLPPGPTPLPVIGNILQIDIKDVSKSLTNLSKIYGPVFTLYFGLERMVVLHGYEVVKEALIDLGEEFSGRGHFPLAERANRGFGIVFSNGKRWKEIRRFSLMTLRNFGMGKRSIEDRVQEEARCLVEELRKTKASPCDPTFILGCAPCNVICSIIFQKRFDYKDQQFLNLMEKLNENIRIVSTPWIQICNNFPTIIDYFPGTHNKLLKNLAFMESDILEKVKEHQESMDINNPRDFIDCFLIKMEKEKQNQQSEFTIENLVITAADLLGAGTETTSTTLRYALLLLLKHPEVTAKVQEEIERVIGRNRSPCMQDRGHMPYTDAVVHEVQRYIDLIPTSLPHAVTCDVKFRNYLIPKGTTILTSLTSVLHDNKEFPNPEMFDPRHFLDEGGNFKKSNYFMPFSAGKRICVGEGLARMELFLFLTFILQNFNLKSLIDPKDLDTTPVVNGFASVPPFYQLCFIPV
# 26S proteasome non-ATPase regulatory subunit 14, sequence (O00487 whole entry): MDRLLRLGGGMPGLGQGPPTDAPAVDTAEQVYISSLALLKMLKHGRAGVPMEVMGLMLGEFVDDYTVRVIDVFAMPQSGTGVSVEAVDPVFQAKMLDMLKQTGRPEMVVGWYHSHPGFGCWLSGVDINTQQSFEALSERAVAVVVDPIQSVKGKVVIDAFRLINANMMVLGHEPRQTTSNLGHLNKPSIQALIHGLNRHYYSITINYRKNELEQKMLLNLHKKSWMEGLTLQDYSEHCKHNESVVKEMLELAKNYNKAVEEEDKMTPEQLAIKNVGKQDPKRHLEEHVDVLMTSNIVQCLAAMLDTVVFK
# 72 kDa type IV collagenase, sequence (P08253 whole entry): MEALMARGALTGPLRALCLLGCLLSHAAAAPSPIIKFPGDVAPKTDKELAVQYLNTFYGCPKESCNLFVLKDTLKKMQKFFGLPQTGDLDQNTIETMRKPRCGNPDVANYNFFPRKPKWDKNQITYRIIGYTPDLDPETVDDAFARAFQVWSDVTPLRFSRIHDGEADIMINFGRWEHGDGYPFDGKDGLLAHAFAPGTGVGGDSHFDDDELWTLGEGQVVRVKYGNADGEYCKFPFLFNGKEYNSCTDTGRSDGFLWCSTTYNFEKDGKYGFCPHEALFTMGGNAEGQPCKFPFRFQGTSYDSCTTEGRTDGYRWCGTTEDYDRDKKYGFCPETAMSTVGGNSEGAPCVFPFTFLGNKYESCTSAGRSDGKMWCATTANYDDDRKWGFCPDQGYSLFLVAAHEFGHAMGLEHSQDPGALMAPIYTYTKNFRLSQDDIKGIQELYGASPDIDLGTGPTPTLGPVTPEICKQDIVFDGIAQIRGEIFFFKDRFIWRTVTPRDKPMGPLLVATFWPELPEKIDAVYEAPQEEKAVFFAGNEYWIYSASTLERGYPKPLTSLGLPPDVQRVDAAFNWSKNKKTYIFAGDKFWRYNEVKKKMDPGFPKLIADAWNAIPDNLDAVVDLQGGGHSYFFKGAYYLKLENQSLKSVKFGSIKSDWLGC
# X-box-binding protein 1, sequence (P17861 whole entry): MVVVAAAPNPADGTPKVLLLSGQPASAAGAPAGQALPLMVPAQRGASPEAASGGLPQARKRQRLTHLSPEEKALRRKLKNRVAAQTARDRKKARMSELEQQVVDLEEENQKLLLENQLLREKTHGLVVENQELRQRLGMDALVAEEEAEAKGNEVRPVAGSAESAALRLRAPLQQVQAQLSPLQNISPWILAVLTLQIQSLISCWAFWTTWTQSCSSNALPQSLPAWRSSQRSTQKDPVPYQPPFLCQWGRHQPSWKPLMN
compound,measurement,setting,value
Cc1cccc(OCc2nnc(SCc3nc(O)c4ccc(C(F)(F)F)cc4n3)o2)c1,IC50,Prothrombin,29.7 µM (active)
same,IC50,[1],> 100 µM (inactive)
same,IC50,[2],21.5 µM (active)
same,Absolute IC50 (XBP1),X-box-binding protein 1,10 µM
Cc1ccccc1N1C(=O)c2cccc3c(N(C)CCO)ccc(c23)C1=O,AC50,Salmon testes DNA,68.4 µM (active)
same,EC50,[3],5.5 µM (active)
same,AC50,ORF 73,172 µM (active)
same,AC50,Keap1/Nrf2,> 52 µM (inactive)
CSc1nc(-c2ccc(C)cc2)nc(C(Cl)Cl)n1,EC50,[4],0.714 µM (active)
same,IC50,Phosphomannomutase 2,> 100 µM (inactive)
same,AC50,Cytochrome P450 2C19,0.398 µM (inconclusive)
same,IC50,MDA-MB-435,> 10 µM (inactive)
same,EC50,[5],0.824 µM (active)
same,IC50,cells,> 10 µM (inactive)
same,EC50,[6],> 60 µM (inconclusive)
